In this test the target is Genome polyprotein (West Nile virus) (UniProt P06935). Put plainly: inhibitors of WNV NS2B-NS3 protease, dose response, biochemical, confirmation (AID 653). To be noted: WNV NS2B-NS3 protease enzymatic assay, fluorescence.

Active and inactive are the calls of the source. The rule behind the calls is not given here.

Genome polyprotein (West Nile virus), sequence (P06935 1371-1501 limits assumed): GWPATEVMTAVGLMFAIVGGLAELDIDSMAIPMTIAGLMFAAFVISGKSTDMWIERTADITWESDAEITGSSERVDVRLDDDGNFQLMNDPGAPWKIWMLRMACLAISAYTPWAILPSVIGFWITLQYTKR
Genome polyprotein (West Nile virus), sequence (P06935 1502-1679 limits assumed): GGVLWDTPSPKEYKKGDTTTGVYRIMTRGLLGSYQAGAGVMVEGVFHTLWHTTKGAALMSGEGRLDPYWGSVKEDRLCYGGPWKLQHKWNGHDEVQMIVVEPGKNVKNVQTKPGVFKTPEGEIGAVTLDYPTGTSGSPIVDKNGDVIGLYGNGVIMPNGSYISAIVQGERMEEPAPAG

In the case of `COC(=O)CSC1=C(C#N)C(c2ccc(C)cc2)C2=C(CCCC2=O)N1` (stereo not given), the IC50 was > 50 µM (inactive). Next, `COc1cccc(NC(=O)CSc2nc3n[nH]c(C)c3c(=N)n2-c2cccc(OC)c2)c1`: > 50 µM (inactive); `COc1ccc(N=CC2=C(O)CCCC2=O)cc1`: 34.1 µM.

In the case of `COc1ccc(OC)c(C2C(C(N)=O)=C(C)Nc3nc(-c4cccc(Cl)c4)nn32)c1` (stereo not given), the IC50 is > 50 µM (inactive).

As for `C/C(CC1(O)C(=O)N(Cc2ccccc2)c2ccccc21)=N\O` (stereo not given), the IC50 is > 50 µM (inactive).

The values above are taken from PubChem BioAssay AID653 (University of Pittsburgh Molecular Library Screening Center, 2007).
